Patent US10836763B2, “5 to 7 membered heterocyclic amides as JAK inhibitors” (priority 2018, dated 2020)
Read-outs that look alike come from different tables or passages of the source.

Tests used:
Tyk2 = Tyk2 (Homo sapiens (Human), UniProt P29597); test: Biochemical JAK kinase assay (LanthaScreen), Tyk2
Experimental: (§1) Assay 1: Biochemical JAK Kinase Assays
(§2) A panel of four LanthaScreen JAK biochemical assays (JAK1, 2, 3 and Tyk2) were carried in a common kinase reaction buffer (50 mM HEPES, pH 7.5, 0.01% Brij-35, 10 mM MgCl2, and 1 mM EGTA). Recombinant GST-tagged JAK enzymes and a GFP-tagged STAT1 peptide substrate were obtained from Life Technologies.
(§3) Serially diluted compounds were pre-incubated with each of the four JAK enzymes and the substrate in white 384-well microplates (Corning) at ambient temperature for 1 h. ATP was subsequently added to initiate the kinase reactions in 10 μL total volume, with 1% DMSO. […] Kinase reactions were allowed to proceed for 1 hour at ambient temperature before a 10 μL preparation of EDTA (10 mM final concentration) and Tb-anti-pSTAT1 (pTyr701) antibody (Life Technologies, 2 nM final concentration) in TR-FRET dilution buffer (Life Technologies) was added. The plates were allowed to incubate at ambient temperature for 1 h before being read on the EnVision reader (Perkin Elmer). Emission ratio signals (520 nm/495 nm) were recorded and utilized to calculate the percent inhibition values based on DMSO and background controls.
(§4) For dose-response analysis, percent inhibition data were plotted vs. compound concentrations, and IC50 values were determined from a 4-parameter robust fit model with the Prism software (GraphPad Software). Results were expressed as pIC50 (negative logarithm of IC50) and subsequently converted to pKi (negative logarithm of dissociation constant, Ki) using the Cheng-Prusoff equation.

JAK3 = JAK3 (Homo sapiens (Human), UniProt P52333); type: biochemical
JAK3, sequence (P52333 whole entry): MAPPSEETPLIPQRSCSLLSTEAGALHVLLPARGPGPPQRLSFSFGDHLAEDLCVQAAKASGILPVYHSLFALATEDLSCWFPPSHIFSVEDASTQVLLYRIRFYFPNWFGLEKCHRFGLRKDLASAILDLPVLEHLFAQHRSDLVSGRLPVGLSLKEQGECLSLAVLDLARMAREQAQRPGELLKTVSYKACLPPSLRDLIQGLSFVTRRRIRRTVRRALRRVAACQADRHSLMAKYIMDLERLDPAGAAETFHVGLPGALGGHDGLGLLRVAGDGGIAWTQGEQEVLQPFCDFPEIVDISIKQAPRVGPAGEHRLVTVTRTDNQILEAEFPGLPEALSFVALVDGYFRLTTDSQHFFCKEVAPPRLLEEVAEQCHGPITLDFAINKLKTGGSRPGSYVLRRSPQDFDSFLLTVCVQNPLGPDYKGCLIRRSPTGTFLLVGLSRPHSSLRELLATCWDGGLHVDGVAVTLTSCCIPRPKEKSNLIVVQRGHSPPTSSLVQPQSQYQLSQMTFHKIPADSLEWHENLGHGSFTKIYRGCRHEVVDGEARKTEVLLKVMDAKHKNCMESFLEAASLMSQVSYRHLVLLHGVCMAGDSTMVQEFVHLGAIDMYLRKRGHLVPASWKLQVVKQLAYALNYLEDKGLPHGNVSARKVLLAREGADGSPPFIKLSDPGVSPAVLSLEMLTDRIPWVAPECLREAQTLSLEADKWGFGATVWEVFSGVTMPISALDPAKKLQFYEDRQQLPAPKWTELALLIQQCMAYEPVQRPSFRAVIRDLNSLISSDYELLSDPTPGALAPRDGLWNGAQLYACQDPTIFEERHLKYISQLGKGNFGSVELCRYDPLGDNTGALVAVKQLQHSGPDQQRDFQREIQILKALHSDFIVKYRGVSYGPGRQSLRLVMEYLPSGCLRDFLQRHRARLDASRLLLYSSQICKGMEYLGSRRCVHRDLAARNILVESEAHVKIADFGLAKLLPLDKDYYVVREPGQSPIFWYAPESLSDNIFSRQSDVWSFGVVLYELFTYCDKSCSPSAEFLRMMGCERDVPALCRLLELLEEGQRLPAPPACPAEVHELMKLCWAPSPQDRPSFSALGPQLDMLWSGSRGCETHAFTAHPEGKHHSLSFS
Experimental: as §1, §2, §3, §4

JAK2 = JAK2 (Homo sapiens (Human), UniProt O60674); test: Biochemical JAK kinase assay (LanthaScreen), JAK2
JAK2, sequence (O60674 whole entry): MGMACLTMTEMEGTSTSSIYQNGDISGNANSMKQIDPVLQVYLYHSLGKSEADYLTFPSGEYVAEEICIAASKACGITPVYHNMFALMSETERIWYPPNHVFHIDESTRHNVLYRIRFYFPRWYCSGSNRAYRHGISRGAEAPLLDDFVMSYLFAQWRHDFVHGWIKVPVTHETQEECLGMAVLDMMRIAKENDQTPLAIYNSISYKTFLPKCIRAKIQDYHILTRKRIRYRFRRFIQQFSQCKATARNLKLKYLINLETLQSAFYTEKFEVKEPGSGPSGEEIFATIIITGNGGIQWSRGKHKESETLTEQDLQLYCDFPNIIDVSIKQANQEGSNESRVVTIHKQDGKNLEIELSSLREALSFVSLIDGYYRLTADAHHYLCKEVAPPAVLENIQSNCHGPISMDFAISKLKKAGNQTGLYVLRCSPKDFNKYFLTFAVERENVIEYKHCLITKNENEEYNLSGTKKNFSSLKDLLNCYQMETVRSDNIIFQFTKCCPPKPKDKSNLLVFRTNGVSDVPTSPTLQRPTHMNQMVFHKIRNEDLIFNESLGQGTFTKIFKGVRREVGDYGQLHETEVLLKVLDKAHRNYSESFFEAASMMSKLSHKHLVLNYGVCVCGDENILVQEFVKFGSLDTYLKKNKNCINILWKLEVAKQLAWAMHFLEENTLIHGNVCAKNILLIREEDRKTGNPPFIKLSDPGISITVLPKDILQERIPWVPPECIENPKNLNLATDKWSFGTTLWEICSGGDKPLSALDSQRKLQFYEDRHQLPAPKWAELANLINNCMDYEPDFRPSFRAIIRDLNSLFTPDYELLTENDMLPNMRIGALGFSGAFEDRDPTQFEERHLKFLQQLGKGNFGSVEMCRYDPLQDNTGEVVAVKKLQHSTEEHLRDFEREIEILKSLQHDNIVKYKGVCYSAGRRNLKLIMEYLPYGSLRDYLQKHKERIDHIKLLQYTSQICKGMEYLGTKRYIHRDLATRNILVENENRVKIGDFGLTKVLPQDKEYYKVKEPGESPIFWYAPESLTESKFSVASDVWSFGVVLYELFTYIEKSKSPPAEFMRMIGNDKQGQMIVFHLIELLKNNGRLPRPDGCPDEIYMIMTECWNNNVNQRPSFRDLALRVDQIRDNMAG
Experimental: as §1, §2, §3, §4

Lung S9 metabolism = type: in vitro ADME, human; conditions: for Compound Remaining at 60 min (%) / microsomal CLint at 1 µM: human lung S9, 1 μM compound, 1 mg/mL S9 protein, NADPH and PAPS; for microsomal CLint at 1 µM: lung S9 fraction, pH 7.4, read-out: Clearance; for Sulfate Appearance: qualitative, O-sulfate metabolite peak in human lung S9
Experimental: Assay 5: Lung S9 Metabolism […] Lung S9 fractions from human (lot 1410245) were purchased from XenoTech LLC (Lenexa, Kans.). NADPH (Sigma Aldrich, N1630) and 3-phosphoadenosine 5-phosphosulfate (PAPS) (Sigma Aldrich, A1651) were purchased from Sigma Aldrich (St. Louis, Mo.). Acetonitrile and water were obtained from VWR (Radnor, Pa.) and were of HPLC grade or better. Raloxifene and formic acid was purchased from Sigma Aldrich (St. Louis, Mo.). Lung S9 incubations were performed in a water bath at 37° C. in a 96-well polypropylene plate. […] All samples were centrifuged at 2250 g for 10 minutes at 5° C. Supernatant (50 μL) was taken from the centrifuged samples and diluted into 100 μL HPLC water containing internal standard. […] Mobile Phase A consisted of Water+0.2% formic acid and Mobile Phase B consisted of acetonitrile+0.2% formic acid. Peak integration was accomplished using Gubbs GMSU software (Gubbs Inc., Alpharetta, Ga.). For each sample, peak area ratios were calculated by dividing the analyte peak area by the internal standard peak area. […] Determination of sulfate metabolite formation was made qualitatively by observation of early-eluting peak in the parent ion channel which, based on historical internal data, corresponded to the O-sulfate metabolite of each parent compound.

JAK1 = JAK1 (Homo sapiens (Human), UniProt P23458); test: Biochemical JAK kinase assay (LanthaScreen), JAK1
JAK1, sequence (P23458 whole entry): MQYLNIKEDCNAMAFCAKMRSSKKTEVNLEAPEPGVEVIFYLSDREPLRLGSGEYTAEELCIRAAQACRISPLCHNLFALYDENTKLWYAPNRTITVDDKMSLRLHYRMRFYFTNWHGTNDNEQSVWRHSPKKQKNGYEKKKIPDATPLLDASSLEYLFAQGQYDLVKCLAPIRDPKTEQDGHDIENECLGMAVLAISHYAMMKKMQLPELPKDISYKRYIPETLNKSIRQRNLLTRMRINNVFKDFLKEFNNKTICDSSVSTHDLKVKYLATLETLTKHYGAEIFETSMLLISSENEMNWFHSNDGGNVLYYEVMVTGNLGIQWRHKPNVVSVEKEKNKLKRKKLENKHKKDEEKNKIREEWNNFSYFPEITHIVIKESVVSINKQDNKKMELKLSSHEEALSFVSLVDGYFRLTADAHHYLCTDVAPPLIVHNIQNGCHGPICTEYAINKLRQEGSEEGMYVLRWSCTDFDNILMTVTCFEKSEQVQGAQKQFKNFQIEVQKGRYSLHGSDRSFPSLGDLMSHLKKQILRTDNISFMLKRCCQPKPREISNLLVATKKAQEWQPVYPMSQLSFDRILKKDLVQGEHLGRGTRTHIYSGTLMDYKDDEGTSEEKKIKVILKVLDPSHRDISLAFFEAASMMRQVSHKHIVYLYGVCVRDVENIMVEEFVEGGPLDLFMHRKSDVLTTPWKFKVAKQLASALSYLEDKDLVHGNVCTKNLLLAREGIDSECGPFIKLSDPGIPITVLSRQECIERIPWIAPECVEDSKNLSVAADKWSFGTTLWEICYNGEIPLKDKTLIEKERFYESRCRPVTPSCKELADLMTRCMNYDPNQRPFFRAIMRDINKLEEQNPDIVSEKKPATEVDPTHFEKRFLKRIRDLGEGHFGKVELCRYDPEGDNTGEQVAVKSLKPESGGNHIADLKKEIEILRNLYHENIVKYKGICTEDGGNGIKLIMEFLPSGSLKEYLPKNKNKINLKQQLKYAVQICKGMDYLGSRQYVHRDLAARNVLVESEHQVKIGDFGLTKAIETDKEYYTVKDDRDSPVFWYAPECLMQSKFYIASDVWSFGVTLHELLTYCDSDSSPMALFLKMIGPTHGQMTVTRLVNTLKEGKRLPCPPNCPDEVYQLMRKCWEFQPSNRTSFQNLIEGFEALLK
Experimental: as §1, §2, §3, §4

[1] = tested on: TSLP-evoked TARC release in human peripheral blood mononuclear cells; test: Inhibition of TSLP-evoked TARC release in human peripheral blood mononuclear cells; type: cell-based; conditions: read-out: pIC50 ± st. dev., inhibition of TSLP-evoked TARC release (converted)
Description: Assay 4: Inhibition of TSLP-Evoked TARC Release in Human Peripheral Blood Mononuclear Cells
Thymic stromal lymphopoietin (TSLP) and thymus and activation-regulated chemokine (TARC) are overexpressed in asthmatic airways, and correlate with disease severity. In the lungs, TSLP may be released by bronchial epithelial cells in response to allergens and viral infections. TSLP signals through an IL-7Rα/TSLPR heterodimer found in a broad range of tissues and cell types, including epithelial cells, endothelial cells, neutrophils, macrophages, and mast cells. The binding of TSLP to its receptor induces a conformational change that activates JAK1 and JAK2 to phosphorylate various transcription factors, including STAT3 and STAT5. In immune cells, this triggers a cascade of intracellular events that result in cell proliferation, anti-apoptosis, dendritic cell migration, and production of Th2 cytokines and chemokines. In peripheral blood mononuclear cells (PBMC), TSLP has a proinflammatory effect by activating myeloid dendritic cells to attract and stimulate T cells, a process mediated by the chemoattractant TARC.
The potencies of the test compounds were measured for inhibition of TARC release.
PBMC aliquots (previously isolated from whole blood and frozen in aliquots at −80° C.) from 3 to 5 donors were thawed at 37° C. and added dropwise to 40 mL pre-warmed, sterile-filtered, complete RPMI media in 50 mL Falcon tubes. Cells were pelleted and resuspended in complete media at 2.24×10^6 cells/mL. Cells were seeded at […] (190,000 cells) per well in a tissue culture treated 96-well flat bottom microplate. Cells were allowed to rest for 1 hour at 37° C. with 5% CO2.
Compounds were received as 10 mM stock solutions in DMSO. 3.7-fold serial dilutions were performed to generate 9 concentrations of test compound in DMSO at 300× the final assay test concentration. […] After the 1 hour rest period, 95 µL of 2× compound was added to each well of PBMC, for a final assay concentration range of 33.33 μM to […]. 95 μL of 0.2% DMSO in complete media was added to the untreated control wells. Cells were pre-treated with compound for 1 hour at 37° C. with 5% CO2 prior to stimulation.
Recombinant human TSLP protein was reconstituted at 10 μg/mL in sterile DPBS with 0.1% BSA and stored in aliquots at −20° C. Immediately prior to use, an aliquot was thawed and prepared at 20× the final assay concentration in complete media. 10 μL of 20×TSLP was added to each well of PBMC, for a final assay concentration of 10 ng/mL. 10 μL of complete media was added to the unstimulated control wells. Cells were stimulated in the presence of compound for 48 hours at 37° C. with 5% CO2.
Following stimulation, the cell culture supernatants were harvested and TARC levels were detected by enzyme-linked immunosorbent assay (ELISA), using Human CCL17/TARC Quantikine ELISA Kit (R&D Systems # DDN00) according to the manufacturer's instructions.
For dose response analysis, the log [test compound (M)] was plotted versus the percent response values for each donor, and IC50 values were determined using a nonlinear regression analysis with GraphPad Prism Software using the 4-parameter sigmoidal dose-response algorithm with variable slope. Data are expressed as mean pIC50 (negative decadic logarithm IC50) values calculated from pIC50 values of individual donors and rounded to one decimal place.

[2] = ATP at Km 10 μM, pIC50 converted with Cheng-Prusoff
[3] = ATP at Km 3 μM, pIC50 converted with Cheng-Prusoff
[4] = ATP at Km 25 μM, pIC50 converted with Cheng-Prusoff
[5] = PBMC from 3 to 5 donors, TSLP 10 ng/mL, 48 hours, TARC ELISA

Tyk2, sequence (P29597 whole entry): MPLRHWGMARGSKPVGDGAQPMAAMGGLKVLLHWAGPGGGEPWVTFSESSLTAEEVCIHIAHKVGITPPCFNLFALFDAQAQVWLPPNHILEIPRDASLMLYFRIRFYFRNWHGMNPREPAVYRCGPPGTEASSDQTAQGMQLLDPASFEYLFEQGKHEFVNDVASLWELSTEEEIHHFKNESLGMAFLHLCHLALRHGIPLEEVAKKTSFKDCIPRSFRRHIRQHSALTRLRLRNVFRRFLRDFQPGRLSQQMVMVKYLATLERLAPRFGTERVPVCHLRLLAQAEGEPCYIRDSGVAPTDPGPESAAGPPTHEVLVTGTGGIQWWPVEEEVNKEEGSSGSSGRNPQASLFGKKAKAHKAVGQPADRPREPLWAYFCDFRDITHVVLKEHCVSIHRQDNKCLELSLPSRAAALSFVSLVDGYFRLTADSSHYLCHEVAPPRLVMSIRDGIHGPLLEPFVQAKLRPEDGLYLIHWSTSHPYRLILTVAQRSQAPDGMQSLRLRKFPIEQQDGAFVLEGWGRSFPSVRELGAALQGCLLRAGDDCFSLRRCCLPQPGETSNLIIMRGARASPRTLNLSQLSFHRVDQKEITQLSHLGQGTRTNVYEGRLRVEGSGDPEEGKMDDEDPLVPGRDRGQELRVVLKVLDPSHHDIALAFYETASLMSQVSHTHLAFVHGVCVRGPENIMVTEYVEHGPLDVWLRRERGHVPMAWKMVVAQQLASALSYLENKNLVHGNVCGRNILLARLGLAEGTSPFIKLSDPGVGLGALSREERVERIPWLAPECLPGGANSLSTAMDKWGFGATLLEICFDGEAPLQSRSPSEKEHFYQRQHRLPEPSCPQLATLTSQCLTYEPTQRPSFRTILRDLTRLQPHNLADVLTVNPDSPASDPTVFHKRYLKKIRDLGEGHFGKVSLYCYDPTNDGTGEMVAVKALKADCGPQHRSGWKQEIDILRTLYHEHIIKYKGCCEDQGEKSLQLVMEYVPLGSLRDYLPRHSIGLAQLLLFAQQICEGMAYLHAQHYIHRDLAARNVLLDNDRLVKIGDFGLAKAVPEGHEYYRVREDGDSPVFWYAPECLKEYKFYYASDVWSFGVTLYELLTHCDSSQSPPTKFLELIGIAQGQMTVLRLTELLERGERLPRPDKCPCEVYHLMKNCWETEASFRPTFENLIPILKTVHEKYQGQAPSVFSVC

| Structure (SMILES) | Tyk2 pKi (Tyk2; [2]) | JAK3 PKi (JAK3) | JAK2 pKi (JAK2; [3]) | Compound Remaining at 60 min (%) (Lung S9 metabolism) | microsomal CLint at 1 µM (Lung S9 metabolism) [µL/min/mg] | Sulfate Appearance (Lung S9 metabolism) | JAK1 pKi (JAK1; [4]) | IC50 [1, 5] [µM] | JAK3 PKi (JAK3; ATP at Km 1.6 μM, pIC50 converted with Cheng-Prusoff) | Tyk2 pKi (Tyk2) | JAK2 pKi (JAK2) | JAK1 pKi (JAK1) | IC50 ([1]; PBMC, 48 h) [µM] |
| --- | --- | --- | --- | --- | --- | --- | --- | --- | --- | --- | --- | --- | --- |
| CCCN1Cc2[nH]c(-c3n[nH]c4cc(-c5cc(F)c(O)cc5CC)ccc34)nc2C[C@H]1C(=O)N1C[C@@H]2C[C@H]1CN2C [Compound C-2, ((S)-2-(6-(2-ethyl-5-fluoro-4-hydroxyphenyl)-1H-indazol-3-yl)-5-propyl-4,5,6,7-tetrahydro-3H-imidazo[4,5-c]pyridin-6-yl)((1S,4S)-5-methyl-2,5-diazabicyclo-[2.2.1]heptan-2-yl)methanone, reference compound] | 9.5 | 9.9 | 10.8 | 3 | 61 | Yes | 10.3 | 0.251 | – | – | – | – | – |
| CCc1cc(O)c(F)cc1-c1ccc2c(-c3nc4c([nH]3)CN(C)[C@H](C(=O)N3CCN(CCO)C[C@H]3C)C4)n[nH]c2c1 [Compound C-5, ((S)-2-(6-(2-ethyl-5-fluoro-4-hydroxyphenyl)-1H-indazol-3-yl)-5-methyl-4,5,6,7-tetrahydro-3H-imidazo[4,5-c]pyridin-6-yl)((R)-4-(2-hydroxyethyl)-2-methyl-piperazin-1-yl)methanone, reference compound] | 9.5 | 9.9 | 10.7 | 8 | 42.2 | Yes | 10.1 | 0.0501 | – | – | – | – | – |
| CCCN1Cc2[nH]c(-c3n[nH]c4cc(-c5ccc(O)cc5CC)ccc34)nc2C[C@H]1C(=O)N1C[C@@H]2C[C@H]1CN2C [Compound 2, ((S)-2-(6-(2-ethyl-4-hydroxyphenyl)-1H-indazol-3-yl)-5-propyl-4,5,6,7-tetrahydro-3H-imidazo[4,5-c]pyridin-6-yl)((1S,4S)-5-methyl-2,5-diazabicyclo[2.2.1]heptan-2-yl)methanone] | 8.9 | – | 10.2 | 81 | 3.5 | Yes | 10.3 | 0.158 | 9.8 | – | – | – | – |
| CCc1cc(O)c(F)cc1-c1ccc2c(-c3nc4c([nH]3)CN(C(C)C)[C@H](C(=O)N3CCCN(C)CC3)C4)n[nH]c2c1 [Compound C-4, (S)-(2-(6-(2-ethyl-5-fluoro-4-hydroxyphenyl)-1H-indazol-3-yl)-5-isopropyl-4,5,6,7-tetrahydro-3H-imidazo[4,5-c]pyridin-6-yl)(4-methyl-1,4-diazepan-1-yl)methanone, reference compound] | 9.3 | 9.8 | 10.6 | 4 | 53.4 | Yes | 10.0 | 0.1 | – | – | – | – | – |
| CCc1cc(O)ccc1-c1ccc2c(-c3nc4c([nH]3)CN(C(C)C)[C@H](C(=O)N3CCCN(C)CC3)C4)n[nH]c2c1 [Compound 4, (S)-(2-(6-(2-ethyl-4-hydroxyphenyl)-1H-indazol-3-yl)-5-isopropyl-4,5,6,7-tetrahydro-3H-imidazo[4,5-c]pyridin-6-yl)(4-methyl-1,4-diazepan-1-yl)methanone] | – | 10.1 | – | 88 | 2.1 | Yes | – | – | – | 9.0 | 10.4 | 10.1 | 0.158 |
| CCc1cc(O)ccc1-c1ccc2c(-c3nc4c([nH]3)CN(C)[C@H](C(=O)N3CCN(CCO)C[C@H]3C)C4)n[nH]c2c1 [Compound 5, ((S)-2-(6-(2-ethyl-4-hydroxyphenyl)-1H-indazol-3-yl)-5-methyl-4,5,6,7-tetrahydro-3H-imidazo[4,5-c]pyridin-6-yl)((R)-4-(2-hydroxyethyl)-2-methylpiperazin-1-yl)methanone] | – | 10.1 | – | 80 | 3.7 | Yes | – | – | – | 9.2 | 10.5 | 10.3 | 0.0316 |
| CCc1cc(O)c(F)cc1-c1ccc2c(-c3nc4c([nH]3)CN(C)[C@H](C(=O)N3CCN(C)C[C@@H]3C)C4)n[nH]c2c1 [Compound C-3, ((S)-2,4-dimethylpiperazin-1-yl)((S)-2-(6-(2-ethyl-5-fluoro-4-hydroxyphenyl)-1H-indazol-3-yl)-5-methyl-4,5,6,7-tetrahydro-3H-imidazo[4,5-c]pyridin-6-yl)methanone, reference compound] | 9.3 | 9.7 | 10.5 | 14 | 33.2 | Yes | – | 0.1 | – | – | – | – | – |
